Source: the NIST ThermoML archive (doi:10.1021/je300102d)
Numbers after ± are expanded uncertainties.

Experiment: xn = mol fraction of the nth substance listed
Conditions: 101 kPa, Liquid; for viscosity: Concentric cylinders viscometry; for mass density: Vibrating tube method

## N [ammonia] + O
283.15 K, x1 = 0.0111
  viscosity: 1.313 ± 0.053 mPa·s
283.15 K, x1 = 0.0262
  viscosity: 1.428 ± 0.058 mPa·s
283.15 K, x1 = 0.0279
  viscosity: 1.352 ± 0.055 mPa·s
283.15 K, x1 = 0.1147
  viscosity: 1.559 ± 0.063 mPa·s
283.15 K, x1 = 0.176
  viscosity: 1.713 ± 0.069 mPa·s
283.15 K, x1 = 0.0268
  mass density: 988.73 ± 0.2 kg/m3
283.15 K, x1 = 0.0505
  mass density: 979.82 ± 0.2 kg/m3
283.15 K, x1 = 0.1124
  mass density: 957.85 ± 0.2 kg/m3
283.15 K, x1 = 0.148
  mass density: 944.97 ± 0.21 kg/m3
283.15 K, x1 = 0.3043
  mass density: 895.9 ± 0.22 kg/m3
293.15 K, x1 = 0.0111
  viscosity: 1.025 ± 0.042 mPa·s
293.15 K, x1 = 0.0262
  viscosity: 1.074 ± 0.043 mPa·s
293.15 K, x1 = 0.0279
  viscosity: 1.046 ± 0.042 mPa·s
293.15 K, x1 = 0.1147
  viscosity: 1.157 ± 0.047 mPa·s
293.15 K, x1 = 0.176
  viscosity: 1.289 ± 0.052 mPa·s
293.15 K, x1 = 0.0268
  mass density: 986.79 ± 0.2 kg/m3
293.15 K, x1 = 0.0505
  mass density: 977.5 ± 0.2 kg/m3
293.15 K, x1 = 0.1124
  mass density: 954.52 ± 0.2 kg/m3
293.15 K, x1 = 0.148
  mass density: 941.01 ± 0.21 kg/m3
293.15 K, x1 = 0.3043
  mass density: 889.82 ± 0.22 kg/m3
303.15 K, x1 = 0.0111
  viscosity: 0.8106 ± 0.033 mPa·s
303.15 K, x1 = 0.0262
  viscosity: 0.845 ± 0.034 mPa·s
303.15 K, x1 = 0.0279
  viscosity: 0.8278 ± 0.034 mPa·s
303.15 K, x1 = 0.1147
  viscosity: 0.9025 ± 0.037 mPa·s
303.15 K, x1 = 0.176
  viscosity: 0.9955 ± 0.04 mPa·s
303.15 K, x1 = 0.0268
  mass density: 983.98 ± 0.2 kg/m3
303.15 K, x1 = 0.0505
  mass density: 974.43 ± 0.2 kg/m3
303.15 K, x1 = 0.1124
  mass density: 950.65 ± 0.2 kg/m3
303.15 K, x1 = 0.148
  mass density: 936.67 ± 0.21 kg/m3
313.15 K, x1 = 0.0111
  viscosity: 0.672 ± 0.027 mPa·s
313.15 K, x1 = 0.0262
  viscosity: 0.7124 ± 0.029 mPa·s
313.15 K, x1 = 0.0279
  viscosity: 0.6922 ± 0.028 mPa·s
313.15 K, x1 = 0.1147
  viscosity: 0.7653 ± 0.031 mPa·s
313.15 K, x1 = 0.176
  viscosity: 0.8467 ± 0.034 mPa·s
313.15 K, x1 = 0.0268
  mass density: 980.32 ± 0.2 kg/m3
313.15 K, x1 = 0.0505
  mass density: 970.59 ± 0.2 kg/m3
313.15 K, x1 = 0.1124
  mass density: 946.14 ± 0.2 kg/m3
313.15 K, x1 = 0.148
  mass density: 931.7 ± 0.21 kg/m3
323.15 K, x1 = 0.0111
  viscosity: 0.5645 ± 0.023 mPa·s
323.15 K, x1 = 0.0262
  viscosity: 0.5945 ± 0.024 mPa·s
323.15 K, x1 = 0.0279
  viscosity: 0.5795 ± 0.024 mPa·s
323.15 K, x1 = 0.1147
  viscosity: 0.6297 ± 0.026 mPa·s
323.15 K, x1 = 0.176
  viscosity: 0.6829 ± 0.028 mPa·s
323.15 K, x1 = 0.0268
  mass density: 975.98 ± 0.2 kg/m3
323.15 K, x1 = 0.0505
  mass density: 966.09 ± 0.2 kg/m3
323.15 K, x1 = 0.1124
  mass density: 940.98 ± 0.2 kg/m3
323.15 K, x1 = 0.148
  mass density: 926.12 ± 0.21 kg/m3

## C1CNCCN1 [piperazine] + O
283.15 K, x1 = 0.000906
  viscosity: 1.33 ± 0.054 mPa·s
283.15 K, x1 = 0.00182
  viscosity: 1.362 ± 0.055 mPa·s
283.15 K, x1 = 0.00366
  viscosity: 1.393 ± 0.056 mPa·s
283.15 K, x1 = 0.00553
  viscosity: 1.462 ± 0.059 mPa·s
283.15 K, x1 = 0.00742
  viscosity: 1.533 ± 0.062 mPa·s
283.15 K, x1 = 0.00181
  mass density: 1000.15 ± 0.2 kg/m3
283.15 K, x1 = 0.00367
  mass density: 1000.51 ± 0.2 kg/m3
283.15 K, x1 = 0.00741
  mass density: 1001.34 ± 0.2 kg/m3
283.15 K, x1 = 0.01119
  mass density: 1002.24 ± 0.2 kg/m3
283.15 K, x1 = 0.01938
  mass density: 1004.7 ± 0.2 kg/m3
293.15 K, x1 = 0.000906
  viscosity: 1.012 ± 0.041 mPa·s
293.15 K, x1 = 0.00182
  viscosity: 1.043 ± 0.042 mPa·s
293.15 K, x1 = 0.00366
  viscosity: 1.092 ± 0.044 mPa·s
293.15 K, x1 = 0.00553
  viscosity: 1.119 ± 0.045 mPa·s
293.15 K, x1 = 0.00742
  viscosity: 1.174 ± 0.048 mPa·s
293.15 K, x1 = 0.00181
  mass density: 998.63 ± 0.2 kg/m3
293.15 K, x1 = 0.00367
  mass density: 998.98 ± 0.2 kg/m3
293.15 K, x1 = 0.00741
  mass density: 999.75 ± 0.2 kg/m3
293.15 K, x1 = 0.01119
  mass density: 1000.58 ± 0.2 kg/m3
293.15 K, x1 = 0.01938
  mass density: 1002.52 ± 0.2 kg/m3
303.15 K, x1 = 0.000906
  viscosity: 0.8241 ± 0.034 mPa·s
303.15 K, x1 = 0.00182
  viscosity: 0.8339 ± 0.034 mPa·s
303.15 K, x1 = 0.00366
  viscosity: 0.8791 ± 0.036 mPa·s
303.15 K, x1 = 0.00553
  viscosity: 0.8894 ± 0.036 mPa·s
303.15 K, x1 = 0.00742
  viscosity: 0.9414 ± 0.038 mPa·s
303.15 K, x1 = 0.00181
  mass density: 996.1 ± 0.2 kg/m3
303.15 K, x1 = 0.00367
  mass density: 996.42 ± 0.2 kg/m3
303.15 K, x1 = 0.00741
  mass density: 997.15 ± 0.2 kg/m3
303.15 K, x1 = 0.01119
  mass density: 997.91 ± 0.2 kg/m3
303.15 K, x1 = 0.01938
  mass density: 999.69 ± 0.2 kg/m3
313.15 K, x1 = 0.000906
  viscosity: 0.6757 ± 0.028 mPa·s
313.15 K, x1 = 0.00182
  viscosity: 0.6868 ± 0.028 mPa·s
313.15 K, x1 = 0.00366
  viscosity: 0.7176 ± 0.029 mPa·s
313.15 K, x1 = 0.00553
  viscosity: 0.7531 ± 0.031 mPa·s
313.15 K, x1 = 0.00742
  viscosity: 0.78 ± 0.032 mPa·s
313.15 K, x1 = 0.00181
  mass density: 992.66 ± 0.2 kg/m3
313.15 K, x1 = 0.00367
  mass density: 992.99 ± 0.2 kg/m3
313.15 K, x1 = 0.00741
  mass density: 993.68 ± 0.2 kg/m3
313.15 K, x1 = 0.01119
  mass density: 994.37 ± 0.2 kg/m3
313.15 K, x1 = 0.01938
  mass density: 996.04 ± 0.2 kg/m3
323.15 K, x1 = 0.000906
  viscosity: 0.5816 ± 0.024 mPa·s
323.15 K, x1 = 0.00182
  viscosity: 0.5923 ± 0.024 mPa·s
323.15 K, x1 = 0.00366
  viscosity: 0.621 ± 0.025 mPa·s
323.15 K, x1 = 0.00553
  viscosity: 0.6448 ± 0.026 mPa·s
323.15 K, x1 = 0.00742
  viscosity: 0.6604 ± 0.027 mPa·s
323.15 K, x1 = 0.00181
  mass density: 988.51 ± 0.2 kg/m3
323.15 K, x1 = 0.00367
  mass density: 988.81 ± 0.2 kg/m3
323.15 K, x1 = 0.00741
  mass density: 989.47 ± 0.2 kg/m3
323.15 K, x1 = 0.01119
  mass density: 990.14 ± 0.2 kg/m3
323.15 K, x1 = 0.01938
  mass density: 991.64 ± 0.2 kg/m3

## O [water] + C1CNCCN1
283.15 K, x2 = 0
  viscosity: 1.307 ± 0.053 mPa·s
  mass density: 999.7 ± 0.2 kg/m3
293.15 K, x2 = 0
  viscosity: 1.002 ± 0.041 mPa·s
303.15 K, x2 = 0
  viscosity: 0.7977 ± 0.032 mPa·s
313.15 K, x2 = 0
  viscosity: 0.6532 ± 0.027 mPa·s
323.15 K, x2 = 0
  viscosity: 0.547 ± 0.023 mPa·s
  mass density: 988.04 ± 0.2 kg/m3

## O [water] + N
283.15 K, x2 = 0
  viscosity: 1.307 ± 0.053 mPa·s
  mass density: 999.7 ± 0.2 kg/m3
293.15 K, x2 = 0
  viscosity: 1.002 ± 0.041 mPa·s
303.15 K, x2 = 0
  viscosity: 0.7977 ± 0.032 mPa·s
313.15 K, x2 = 0
  viscosity: 0.6532 ± 0.027 mPa·s
323.15 K, x2 = 0
  viscosity: 0.547 ± 0.023 mPa·s
  mass density: 988.04 ± 0.2 kg/m3
